The record followed here is ChEMBL document CHEMBL5154832, “Design, Synthesis, and Proof-of-Concept of Triple-Site Inhibitors against Aminoacyl-tRNA Synthetases” (J Med Chem, 2022).

≈ marks a conversion by molar mass, not a printed value.

Test [1] concerns Escherichia coli. Nature of the test: Antibacterial activity against Escherichia coli ATCC 25922 strain assessed as inhibition of bacterial growth incubated for 8 hrs by CLSI protocol based microdilution assay. In kind it is functional.
Test [2] concerns the target T1, Threonine--tRNA ligase (Salmonella enterica) (UniProt A0A3F3IEK2).
T1 sequence (whole entry): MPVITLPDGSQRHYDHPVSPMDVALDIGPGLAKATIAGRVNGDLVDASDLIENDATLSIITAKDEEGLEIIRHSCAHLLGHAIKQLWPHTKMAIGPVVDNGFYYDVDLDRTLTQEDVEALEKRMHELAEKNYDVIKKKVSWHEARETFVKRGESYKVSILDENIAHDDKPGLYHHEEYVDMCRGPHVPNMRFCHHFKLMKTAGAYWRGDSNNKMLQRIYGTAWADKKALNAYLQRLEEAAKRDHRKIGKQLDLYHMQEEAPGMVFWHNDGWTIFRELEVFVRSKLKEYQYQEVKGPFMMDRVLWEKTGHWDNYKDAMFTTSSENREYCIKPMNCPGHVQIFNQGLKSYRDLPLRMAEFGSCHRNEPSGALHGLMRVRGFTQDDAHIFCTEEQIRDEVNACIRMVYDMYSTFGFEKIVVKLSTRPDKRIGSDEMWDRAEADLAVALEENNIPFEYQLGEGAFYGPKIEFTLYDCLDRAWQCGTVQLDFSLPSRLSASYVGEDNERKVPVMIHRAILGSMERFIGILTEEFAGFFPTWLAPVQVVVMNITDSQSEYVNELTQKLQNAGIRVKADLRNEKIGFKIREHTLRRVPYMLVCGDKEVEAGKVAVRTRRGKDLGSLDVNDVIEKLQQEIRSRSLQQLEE
Nature of the test: Binding affinity to recombinant salmonella enterica threonyl-tRNA synthetase assessed as change in melting temperature at 0.1 mM by fluorescence-based thermal shift assay.

For test [3], the target named is T1, Threonine--tRNA ligase (Salmonella enterica). Nature of the test: Inhibition of recombinant salmonella enterica threonyl-tRNA synthetase assessed as reduction in enzyme activity at 10 uM incubated for 20 min by Kinase Glo luminescence assay relative to control.
Test [4] concerns the target T2, Threonine--tRNA ligase (Salmonella enterica, UniProt A0A3F3IEK2).
T2 sequence (A0A3F3IEK2 whole entry): T1 sequence (whole entry)
Nature of the test: Inhibition of recombinant salmonella enterica threonyl-tRNA synthetase assessed as reduction in enzyme activity incubated for 20 min by Kinase Glo luminescence assay.

In test [5] the test system is Staphylococcus aureus. Nature of the test: Antibacterial activity against Staphylococcus aureus ATCC 29213 strain assessed as inhibition of bacterial growth incubated for 8 hrs by CLSI protocol based microdilution assay. In kind it is functional.
In test [6] the test system is Enterococcus faecalis. Nature of the test: Antibacterial activity against Enterococcus faecalis ATCC 29212 strain assessed as inhibition of bacterial growth incubated for 8 hrs by CLSI protocol based microdilution assay. In kind it is functional.
Test [7] has as its system Staphylococcus aureus. Nature of the test: Antibacterial activity against Staphylococcus aureus MRSA R3708 strain assessed as inhibition of bacterial growth incubated for 8 hrs by CLSI protocol based microdilution assay. In kind it is functional.
In test [8] the test system is Salmonella enterica. Nature of the test: Antibacterial activity against Salmonella enterica 87 strain assessed as inhibition of bacterial growth incubated for 8 hrs by CLSI protocol based microdilution assay. It is filed as functional.
Test [9] concerns Escherichia coli. Nature of the test: Antibacterial activity against Escherichia coli acraB strain assessed as inhibition of bacterial growth incubated for 8 hrs by CLSI protocol based microdilution assay. It is filed as functional.
Test [10] relates to Pseudomonas aeruginosa. Nature of the test: Antibacterial activity against Pseudomonas aeruginosa ATCC27853 strain assessed as inhibition of bacterial growth incubated for 8 hrs by CLSI protocol based microdilution assay. It is filed as functional.

`C[C@@H](O)[C@H](N)C(=O)N[C@@H](CNC(=O)CCn1cnc2cc(Cl)c(Cl)cc2c1=O)c1cccc(-c2ccccc2)c1`: the MIC in test [1] is ≥ 128 µg/mL; in [5], 32 µg/mL (≈ 54.9 µM); in test [6] it was 32 µg/mL (≈ 54.9 µM); in test [7] it was 16 µg/mL (≈ 27.5 µM); in [8] it was ≥ 128 µg/mL; in test [9], 16 µg/mL (≈ 27.5 µM). In test [10], the MIC was found to be 16 µg/mL (≈ 27.5 µM). Also, in test [2], the ΔTm was 23 °C. The inhibition in test [3] was > 99%. Also, in [4], the 50% inhibitory concentration (IC50) is 520 nM.

`C[C@@H](O)[C@H](N)C(=O)N[C@@H](CNC(=O)CCn1cnc2cc(Cl)c(F)cc2c1=O)c1cccc(-c2ccccc2)c1`: the MIC in test [1] was ≥ 128 µg/mL; in [5], 16 µg/mL (≈ 28.3 µM); in test [6], 32 µg/mL (≈ 56.5 µM); in test [7], 32 µg/mL (≈ 56.5 µM); in test [8] it was ≥ 128 µg/mL; in test [9], 32 µg/mL (≈ 56.5 µM). Further, in test [10], the MIC was determined as 16 µg/mL (≈ 28.3 µM). The ΔTm in test [2] amounted to 22.6 °C. For the same compound, the inhibition in [3] was > 99%. The IC50 in test [4] came out at 550 nM.

As for `C[C@@H](O)[C@H](N)C(=O)N[C@@H](CNC(=O)CCn1cnc2cc(Br)c(Cl)cc2c1=O)c1cccc(-c2ccc3ccccc3c2)c1`, the minimum inhibitory concentration (MIC) in [1] was ≥ 128 µg/mL; in [5], 4 µg/mL (≈ 5.91 µM); in test [6] it was 4 µg/mL (≈ 5.91 µM); in test [7], 4 µg/mL (≈ 5.91 µM); in [8], ≥ 128 µg/mL; in [9], 8 µg/mL (≈ 11.8 µM). Also, in [10], the MIC was determined as 4 µg/mL (≈ 5.91 µM). Also, the thermal shift (ΔTm) in test [2] came to 20.2 °C. Also, the inhibition in test [3] was 85%. In addition, in [4], the half-maximal inhibitory concentration (IC50) was 2100 nM.

As for `C[C@@H](O)[C@H](N)C(=O)N[C@@H](CNC(=O)CCn1cnc2cc(Br)c(Cl)cc2c1=O)c1cccc(-c2ccccc2)c1`, the MIC in test [1] was ≥ 128 µg/mL; in test [5], 32 µg/mL (≈ 51 µM); in test [6], 32 µg/mL (≈ 51 µM); in [7] it was 32 µg/mL (≈ 51 µM); in test [8], ≥ 128 µg/mL; in [9], 32 µg/mL (≈ 51 µM). Moreover, the minimal inhibitory concentration (MIC) in test [10] was 16 µg/mL (≈ 25.5 µM). Also, in test [2], the ΔTm came out at 20.1 °C. The inhibition in [3] is 82%. The IC50 in test [4] was determined as 3710 nM.

Regarding `C[C@@H](O)[C@H](N)C(=O)N[C@@H](CNC(=O)CCn1cnc2cc(Br)c(Cl)cc2c1=O)c1cccc(-c2ccc3[nH]ccc3c2)c1`, the MIC was ≥ 128 µg/mL in test [1]; 32 µg/mL (≈ 48 µM) in test [5]; 32 µg/mL (≈ 48 µM) in [6]; 32 µg/mL (≈ 48 µM) in test [7]; ≥ 128 µg/mL in [8]; 16 µg/mL (≈ 24 µM) in test [9]. The MIC in test [10] amounted to 32 µg/mL (≈ 48 µM). Moreover, the ΔTm in test [2] is 22.6 °C. The inhibition in test [3] turned out to be 91%. For the same compound, in test [4], the IC50 was found to be 1620 nM.

With `C[C@@H](O)[C@H](N)C(=O)N(CCCCCCn1cnc2cc(Br)c(Cl)cc2c1=O)Cc1cccc(-c2ccc3c(c2)CNC3=O)c1`, the MIC in [1] is ≥ 128 µg/mL; in test [5], 64 µg/mL (≈ 94 µM); in test [6] it was 64 µg/mL (≈ 94 µM); in [7], 64 µg/mL (≈ 94 µM); in [8] it was ≥ 128 µg/mL; in test [9], 64 µg/mL (≈ 94 µM). In addition, in test [10], the MIC amounted to 64 µg/mL (≈ 94 µM). The ΔTm in test [2] worked out at 23.5 °C. For the same compound, the inhibition in [3] is 75%. Besides, in test [4], the IC50 was 5680 nM.

On to `C[C@@H](O)[C@H](N)C(=O)N[C@@H](CNC(=O)CCn1cnc2cc(Br)c(Cl)cc2c1=O)c1cccc(-c2ccc3c(c2)CNC3=O)c1`, for which the MIC in test [1], in test [5], in [6], in test [7], in test [8] and in test [9] was ≥ 128 µg/mL throughout. Besides, the MIC in test [10] was ≥ 128 µg/mL. In addition, the ΔTm in test [2] was found to be 32.8 °C. Also, in test [3], the inhibition was > 99%. Also, the IC50 in [4] came to 103 nM.

For the compound `C[C@@H](O)[C@H](N)C(=O)NS(=O)(=O)c1cccc(-c2ccc3[nH]ncc3c2)c1`, the MIC in test [1], in [5], in test [6], in test [7], in [8] and in test [9] was ≥ 128 µg/mL each time. Also, in test [10], the MIC is ≥ 128 µg/mL. Moreover, the ΔTm in test [2] was 29.9 °C. Besides, the inhibition in test [3] is > 99%. In test [4], the IC50 worked out at 190 nM.

On to `C[C@@H](O)[C@H](N)C(=O)N(CCC(=O)NCCn1cnc2cc(Br)c(Cl)cc2c1=O)Cc1cccc(-c2ccc3c(c2)CNC3=O)c1`, for which the MIC is ≥ 128 µg/mL in test [1]; ≥ 128 µg/mL in test [5]; 64 µg/mL (≈ 92 µM) in test [6]; ≥ 128 µg/mL in test [7]; ≥ 128 µg/mL in test [8]; 64 µg/mL (≈ 92 µM) in [9]. In test [10], the MIC was 64 µg/mL (≈ 92 µM). Also, the ΔTm in [2] was determined as 25.4 °C. Moreover, in [3], the inhibition came to 80%. Further, the IC50 in test [4] worked out at 5070 nM.

Consider `C[C@@H](O)[C@H](N)C(=O)N[C@@H](CNC(=O)CCn1cnc2cc(Br)c(Cl)cc2c1=O)c1cccc(-c2ccc3c(N)ncnc3c2)c1`, for which the MIC in test [1], in test [5], in test [6], in [7], in test [8] and in [9] was ≥ 128 µg/mL throughout. In addition, in test [10], the MIC was ≥ 128 µg/mL. In test [2], the ΔTm is 35.2 °C. Besides, the inhibition in test [3] is > 99%. Further, the IC50 in test [4] turned out to be 480 nM.

Take `C[C@@H](O)[C@H](N)C(=O)N[C@@H](CNC(=O)CCn1cnc2cc(Cl)c(Cl)cc2c1=O)c1cccc(-c2ccc(Cl)cc2)c1`: the minimum inhibitory concentration (MIC) in [1] is ≥ 128 µg/mL; in [5], 4 µg/mL (≈ 6.48 µM); in test [6], 4 µg/mL (≈ 6.48 µM); in test [7], 4 µg/mL (≈ 6.48 µM); in test [8], ≥ 128 µg/mL; in test [9] it was 8 µg/mL (≈ 13 µM). The minimum inhibitory concentration (MIC) in [10] is 4 µg/mL (≈ 6.48 µM). Further, the ΔTm in test [2] is 20.1 °C. In test [3], the inhibition was found to be 75%. In addition, the IC50 in test [4] turned out to be 3290 nM.

Regarding `C[C@@H](O)[C@H](N)C(=O)N[C@@H](CNC(=O)CCn1cnc2cc(Br)c(Cl)cc2c1=O)c1cccc(-c2ccc3[nH]ncc3c2)c1`, the MIC in [1], in [5], in [6], in [7], in test [8] and in [9] was ≥ 128 µg/mL throughout. The MIC in [10] is ≥ 128 µg/mL. In test [2], the ΔTm amounted to 28 °C. Further, in test [3], the inhibition was > 99%. For the same compound, the IC50 in [4] worked out at 194 nM.

For `C[C@@H](O)[C@H](N)C(=O)N(CCCC(=O)NCCn1cnc2cc(Br)c(Cl)cc2c1=O)Cc1cccc(-c2ccc3c(c2)CNC3=O)c1`, the minimum inhibitory concentration (MIC) in [1] was ≥ 128 µg/mL; in [5] it was ≥ 128 µg/mL; in [6], 64 µg/mL (≈ 90.1 µM); in test [7], ≥ 128 µg/mL; in test [8], ≥ 128 µg/mL; in test [9], 64 µg/mL (≈ 90.1 µM). For the same compound, in test [10], the MIC is 64 µg/mL (≈ 90.1 µM). In [2], the ΔTm is 27.8 °C. Further, the inhibition in test [3] came to 84%. Moreover, the IC50 in [4] was 2990 nM.

As for `C[C@@H](O)[C@H](N)C(=O)N[C@@H](CNC(=O)CCn1cnc2cc(Cl)c(Cl)cc2c1=O)c1cccc(-c2ccc(C(F)(F)F)cc2)c1`, the MIC is ≥ 128 µg/mL in test [1]; 2 µg/mL (≈ 3.07 µM) in [5]; 4 µg/mL (≈ 6.15 µM) in test [6]; 4 µg/mL (≈ 6.15 µM) in test [7]; ≥ 128 µg/mL in [8]; 8 µg/mL (≈ 12.3 µM) in test [9]. In addition, the MIC in [10] was 4 µg/mL (≈ 6.15 µM). In addition, in [2], the ΔTm came to 25.9 °C. In [3], the inhibition is > 99%. Also, in [4], the IC50 is 580 nM.
